In experiment [1] the test system is NCI-H2228. Nature of the experiment: Cytotoxicity against human NCI-H2228 cells incubated for 72 hrs by MTT assay. Format: functional, cell-based. The following applies: NCI-H2228, 72 h.
Experiment [2] has as its system HCC78. Description: Cytotoxicity against human HCC78 cells incubated for 72 hrs by MTT assay. It is filed as functional, cell-based. A general note: Formazan colour is commonly taken as a measure of viable cells.
Experiment [3] addresses ALK tyrosine kinase receptor (Homo sapiens, UniProt Q9UM73, G1202R/L1196M). Nature of the experiment: Inhibition of human ALK L1196M/G1202R double mutant preincubated for 5 to 10 mins followed by substrate and ATP addition and measured after 60 mins by TR-FRET assay.
The target in experiment [4] is T1, Proto-oncogene tyrosine-protein kinase ROS (Homo sapiens, UniProt P08922, G2032R). Description: Inhibition of recombinant human ROS1 G2032R mutant preincubated for 5 to 10 mins followed by substrate and ATP addition and measured after 60 mins by TR-FRET assay.
T1 sequence (P08922 28-2347 G2032R limits assumed): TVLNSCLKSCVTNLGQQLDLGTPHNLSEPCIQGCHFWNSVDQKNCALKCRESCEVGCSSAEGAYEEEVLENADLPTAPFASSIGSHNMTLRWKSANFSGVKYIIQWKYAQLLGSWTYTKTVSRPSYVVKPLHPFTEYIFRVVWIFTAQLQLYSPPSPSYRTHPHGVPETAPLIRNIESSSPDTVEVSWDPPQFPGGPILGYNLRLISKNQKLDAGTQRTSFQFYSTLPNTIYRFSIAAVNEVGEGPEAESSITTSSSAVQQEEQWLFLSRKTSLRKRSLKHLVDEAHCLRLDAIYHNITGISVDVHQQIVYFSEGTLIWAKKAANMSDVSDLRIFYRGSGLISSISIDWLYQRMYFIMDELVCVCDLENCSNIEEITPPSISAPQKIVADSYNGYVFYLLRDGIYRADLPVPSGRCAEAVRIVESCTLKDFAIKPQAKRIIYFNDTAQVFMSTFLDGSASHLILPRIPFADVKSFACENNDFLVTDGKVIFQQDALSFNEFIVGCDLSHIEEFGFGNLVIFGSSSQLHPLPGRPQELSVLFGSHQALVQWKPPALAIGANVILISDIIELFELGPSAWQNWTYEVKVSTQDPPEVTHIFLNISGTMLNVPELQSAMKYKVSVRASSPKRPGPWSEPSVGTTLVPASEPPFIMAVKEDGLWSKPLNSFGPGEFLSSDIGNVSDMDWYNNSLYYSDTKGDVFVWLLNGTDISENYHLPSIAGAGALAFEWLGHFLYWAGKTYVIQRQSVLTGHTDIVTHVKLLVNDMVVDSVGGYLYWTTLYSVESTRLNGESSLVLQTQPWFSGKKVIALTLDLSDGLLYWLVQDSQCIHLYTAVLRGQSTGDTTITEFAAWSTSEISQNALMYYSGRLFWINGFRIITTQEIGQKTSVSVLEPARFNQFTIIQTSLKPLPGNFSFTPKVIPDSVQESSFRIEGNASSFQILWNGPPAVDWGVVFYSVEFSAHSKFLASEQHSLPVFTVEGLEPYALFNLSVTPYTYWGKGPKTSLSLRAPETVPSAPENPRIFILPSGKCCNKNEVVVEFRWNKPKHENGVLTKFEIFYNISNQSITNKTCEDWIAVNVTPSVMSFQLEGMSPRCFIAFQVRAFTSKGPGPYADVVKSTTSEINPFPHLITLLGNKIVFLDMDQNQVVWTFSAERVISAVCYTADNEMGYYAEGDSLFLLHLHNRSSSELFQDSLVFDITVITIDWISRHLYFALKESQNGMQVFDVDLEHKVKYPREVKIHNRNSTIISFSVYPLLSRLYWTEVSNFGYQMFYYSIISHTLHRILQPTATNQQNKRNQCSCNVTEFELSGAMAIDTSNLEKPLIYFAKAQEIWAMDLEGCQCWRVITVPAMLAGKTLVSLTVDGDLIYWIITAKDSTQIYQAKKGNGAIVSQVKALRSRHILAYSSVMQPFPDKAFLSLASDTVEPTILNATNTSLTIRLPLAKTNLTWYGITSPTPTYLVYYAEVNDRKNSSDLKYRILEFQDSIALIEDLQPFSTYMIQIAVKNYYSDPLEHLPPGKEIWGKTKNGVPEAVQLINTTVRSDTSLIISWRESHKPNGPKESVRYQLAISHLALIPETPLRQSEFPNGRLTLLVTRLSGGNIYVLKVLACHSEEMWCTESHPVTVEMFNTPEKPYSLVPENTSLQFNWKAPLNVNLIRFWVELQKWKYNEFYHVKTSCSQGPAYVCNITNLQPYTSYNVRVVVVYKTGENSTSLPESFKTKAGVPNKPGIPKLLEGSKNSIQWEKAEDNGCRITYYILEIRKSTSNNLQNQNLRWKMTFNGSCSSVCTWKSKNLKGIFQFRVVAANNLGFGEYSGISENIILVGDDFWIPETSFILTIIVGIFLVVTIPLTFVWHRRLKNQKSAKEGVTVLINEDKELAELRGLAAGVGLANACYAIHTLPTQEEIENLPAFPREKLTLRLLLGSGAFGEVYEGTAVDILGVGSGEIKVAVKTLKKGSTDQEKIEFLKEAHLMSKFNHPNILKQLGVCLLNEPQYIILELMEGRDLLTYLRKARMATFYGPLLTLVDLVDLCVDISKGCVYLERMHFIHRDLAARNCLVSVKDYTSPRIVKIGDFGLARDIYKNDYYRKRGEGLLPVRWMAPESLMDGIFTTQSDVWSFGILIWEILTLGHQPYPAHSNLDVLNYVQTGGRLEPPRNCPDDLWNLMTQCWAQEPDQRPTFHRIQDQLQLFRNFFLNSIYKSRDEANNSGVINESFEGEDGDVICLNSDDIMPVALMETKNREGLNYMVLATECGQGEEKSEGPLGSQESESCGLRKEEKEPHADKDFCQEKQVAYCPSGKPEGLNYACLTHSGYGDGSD
The target in experiment [5] is T2, Proto-oncogene tyrosine-protein kinase ROS (Homo sapiens, UniProt P08922). Nature of the experiment: Inhibition of recombinant human ROS1 preincubated for 5 to 10 mins followed by substrate and ATP addition and measured after 60 mins by TR-FRET assay.
Experiment [6] concerns the target T3, ALK tyrosine kinase receptor (Homo sapiens, UniProt Q9UM73). Nature of the experiment: Inhibition of human ALK preincubated for 5 to 10 mins followed by substrate and ATP addition and measured after 60 mins by TR-FRET assay. (In TR-FRET formats the signal depends on donor and acceptor labels being close together.)
Experiment [7] concerns BaF3. Description: Antitumor activity against mouse BaF3 cells harboring EML4 ALK V1 G1202R mutant assessed as tumor growth inhibition at 2.2 nM. The arrangement: scale not given: the % may be the effect or the level left. It is filed as functional.
The test system of experiment [8] is BaF3. Description: Antitumor activity against mouse BaF3 cells harboring wild type ROS1 assessed as tumor growth inhibition at 2.2 nM. It is filed as functional. Set-up: scale not given: the % may be the effect or the level left.
The test system of experiment [9] is BaF3. Description: Antitumor activity against mouse BaF3 cells harboring ROS1 G2032 mutant assessed as tumor growth inhibition at 2.2 nM. Format: functional. Set-up: scale not given: the % may be the effect or the level left.
Experiment [10] deals with T2, Proto-oncogene tyrosine-protein kinase ROS. Description: Inhibition of wild type ROS1 (unknown origin) expressed in BaF3 cells incubated for 4 hrs. Format: cell-based.
Experiment [11] has as its target T3, ALK tyrosine kinase receptor. Description: Inhibition of wild type ALK (unknown origin) expressed in BaF3 cells incubated for 4 hrs. Format: cell-based.
Experiment [12] has as its target T2, Proto-oncogene tyrosine-protein kinase ROS. Nature of the experiment: Inhibition of human ROS1 using KKKSPGEYVNIEFG as substrate incubated for 120 mins in presence of [gamma-33P]-ATP.
The target in experiment [13] is T1, Proto-oncogene tyrosine-protein kinase ROS. Nature of the experiment: Inhibition of human ROS1 G2032R mutant using KKKSPGEYVNIEFG as substrate incubated for 120 mins in presence of [gamma-33P]-ATP.
For experiment [14], the target named is T4, TGF-beta receptor type-1 (Homo sapiens, UniProt P36897).
T4 sequence (P36897 whole entry): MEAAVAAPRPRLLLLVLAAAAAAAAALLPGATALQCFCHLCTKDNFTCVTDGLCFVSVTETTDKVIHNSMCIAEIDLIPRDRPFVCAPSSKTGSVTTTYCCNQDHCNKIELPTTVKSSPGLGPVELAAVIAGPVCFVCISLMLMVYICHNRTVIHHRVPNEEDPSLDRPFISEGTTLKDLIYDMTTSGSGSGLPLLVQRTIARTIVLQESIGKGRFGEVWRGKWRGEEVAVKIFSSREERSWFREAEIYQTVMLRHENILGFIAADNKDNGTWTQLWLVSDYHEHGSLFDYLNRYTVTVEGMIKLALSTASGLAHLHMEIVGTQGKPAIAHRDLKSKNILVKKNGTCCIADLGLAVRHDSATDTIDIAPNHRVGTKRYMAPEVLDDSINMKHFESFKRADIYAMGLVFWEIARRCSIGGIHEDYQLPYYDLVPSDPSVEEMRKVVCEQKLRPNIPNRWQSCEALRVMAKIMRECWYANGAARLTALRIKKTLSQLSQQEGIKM
Nature of the experiment: Inhibition of human […] using Casein as substrate incubated for 120 mins in presence of [gamma-33P]-ATP.

A short description of experiment [15]: Inhibition of human […] G1202R mutant using Casein as substrate incubated for 120 mins in presence of [gamma-33P]-ATP.
The target of experiment [16] is T3, ALK tyrosine kinase receptor. Description: Inhibition of wild-type ALK (unknown origin).
Experiment [17] deals with T2, Proto-oncogene tyrosine-protein kinase ROS. Nature of the experiment: Inhibition of ROS1 (unknown origin) incubated for 1 hr by HTRF assay.
Experiment [18] concerns the target T3, ALK tyrosine kinase receptor. Description: Inhibition of ALK (unknown origin) incubated for 1 hr by HTRF assay.

Where only a bound is given, the exact number is not on record here.

The values below come from ChEMBL document CHEMBL5620350, “Recent advances in the development of dual ALK/ROS1 inhibitors for non-small cell lung cancer therapy” (Eur J Med Chem, 2023).

T3 sequence (Q9UM73 whole entry): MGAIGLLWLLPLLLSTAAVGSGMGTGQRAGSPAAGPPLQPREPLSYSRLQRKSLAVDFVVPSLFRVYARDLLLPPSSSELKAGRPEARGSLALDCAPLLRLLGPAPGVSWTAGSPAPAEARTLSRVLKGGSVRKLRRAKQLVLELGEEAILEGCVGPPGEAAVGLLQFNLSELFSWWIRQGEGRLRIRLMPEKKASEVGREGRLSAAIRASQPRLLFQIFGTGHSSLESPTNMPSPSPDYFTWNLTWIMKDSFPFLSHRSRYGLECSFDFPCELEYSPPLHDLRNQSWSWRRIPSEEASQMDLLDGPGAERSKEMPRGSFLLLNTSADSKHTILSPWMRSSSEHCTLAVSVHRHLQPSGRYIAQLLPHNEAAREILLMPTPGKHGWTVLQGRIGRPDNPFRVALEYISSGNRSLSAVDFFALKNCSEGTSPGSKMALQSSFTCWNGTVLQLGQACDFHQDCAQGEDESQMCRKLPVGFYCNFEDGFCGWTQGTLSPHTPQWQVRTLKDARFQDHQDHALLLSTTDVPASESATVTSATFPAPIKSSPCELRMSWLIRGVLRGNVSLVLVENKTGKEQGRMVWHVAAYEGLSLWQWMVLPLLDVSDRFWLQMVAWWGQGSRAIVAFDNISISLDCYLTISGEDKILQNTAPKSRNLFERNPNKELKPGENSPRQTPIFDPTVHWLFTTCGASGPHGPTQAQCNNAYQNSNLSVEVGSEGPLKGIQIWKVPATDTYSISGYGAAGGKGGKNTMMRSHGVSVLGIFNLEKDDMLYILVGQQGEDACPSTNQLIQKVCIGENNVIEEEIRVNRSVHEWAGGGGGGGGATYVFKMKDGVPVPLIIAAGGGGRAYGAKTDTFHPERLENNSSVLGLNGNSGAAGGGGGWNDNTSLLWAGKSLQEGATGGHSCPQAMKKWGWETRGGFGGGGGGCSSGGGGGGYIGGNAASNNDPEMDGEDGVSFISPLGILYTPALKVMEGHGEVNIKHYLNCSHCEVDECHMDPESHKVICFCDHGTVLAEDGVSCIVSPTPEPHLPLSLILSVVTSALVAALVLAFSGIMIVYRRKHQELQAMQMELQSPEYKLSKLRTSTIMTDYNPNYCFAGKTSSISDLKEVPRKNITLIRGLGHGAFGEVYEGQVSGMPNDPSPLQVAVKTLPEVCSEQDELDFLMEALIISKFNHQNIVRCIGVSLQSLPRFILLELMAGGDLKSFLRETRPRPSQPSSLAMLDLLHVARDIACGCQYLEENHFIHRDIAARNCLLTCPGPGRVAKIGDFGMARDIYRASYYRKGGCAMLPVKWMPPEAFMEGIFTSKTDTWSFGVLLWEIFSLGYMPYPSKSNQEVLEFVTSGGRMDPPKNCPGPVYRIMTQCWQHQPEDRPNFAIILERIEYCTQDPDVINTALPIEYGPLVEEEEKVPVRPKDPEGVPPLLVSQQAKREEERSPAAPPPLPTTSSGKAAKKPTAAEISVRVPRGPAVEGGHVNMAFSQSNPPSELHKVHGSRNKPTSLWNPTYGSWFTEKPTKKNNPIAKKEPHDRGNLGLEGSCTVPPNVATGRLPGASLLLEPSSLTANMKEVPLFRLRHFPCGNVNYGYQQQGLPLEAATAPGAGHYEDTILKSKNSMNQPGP

Usually IC50 stands for the point on the concentration scale where inhibition reaches its midpoint. For the compound `COc1ccc(CNC(=O)Cn2nc(-c3ccccc3)c3cnc4ccccc4c32)cc1`, the IC50 in [1] amounted to 2710 nM; in [2] (Homo sapiens, HCC78, 72 h), 1620 nM; in [2] (hcc78), 1610 nM.

Turning to `C[C@H]1Nc2ccn3ncc(c3n2)C(=O)N[C@@]2(C)CC3=CC(F)=CC1C3O2` (some centres not stated), the IC50 in experiment [3] stood at 20.7 nM; in experiment [4], 0.34 nM; in experiment [5] it was 0.84 nM; in [6], 2.02 nM.

For the compound `C[C@H]1CNC(=O)c2cnn3ccc(nc23)N[C@H](C)c2cc(F)ccc2O1` [REPOTRECTINIB], the Activity in experiment [7] worked out at 99%; in experiment [8] it was 197%; in experiment [9], 99%.

Turning to `C[C@H]1Nc2ccn3ncc(c3n2)C(=O)NC[C@@H](CF)Oc2ccc(F)cc21`, the IC50 in experiment [10] and in [11] was 2 nM in each case.

In the case of `CCOc1ccc(F)cc1[C@@H](C)Nc1ccn2ncc(C3=NOC(C)N3)c2n1` (some centres not stated), the IC50 in experiment [12] is less than 0.5 nM; in experiment [13], less than 0.5 nM; in [14], less than 50 nM; in experiment [15] it was less than 50 nM.

As for `O=C(Nc1n[nH]c2ncc(S(=O)(=O)c3cccc(F)c3)cc12)c1ccc(N2CCOCC2)cc1`, the IC50 in [16] was 0.6 nM.

Regarding `CC(C)Oc1ccc(F)cc1[C@@H](C)Nc1ccn2ncc(C3=NOC(C)N3)c2n1` (some centres not stated), the IC50 in experiment [12] was less than 0.5 nM; in experiment [13], less than 0.5 nM; in experiment [14], less than 50 nM; in experiment [15], less than 50 nM.

`COc1cc(-n2cccc2CN2CCN(C)CC2)ccc1Nc1ncc(Cl)c(Nc2ccccc2NS(C)(=O)=O)n1`: the IC50 in experiment [17] was 3.6 nM; in [18], 1.8 nM.

`COc1ccc(F)cc1[C@@H](C)Nc1ccn2ncc(C3=NOC(C)(C)N3)c2n1`: the IC50 in [12] is less than 0.5 nM; in experiment [13] it was less than 0.5 nM; in [14], less than 50 nM; in experiment [15], less than 50 nM.
